In article PMC2724550, “Citrus auraptene suppresses cyclin D1 and significantly delays N-methyl nitrosourea induced mammary carcinogenesis in female Sprague-Dawley rats” (BMC Cancer, 2009):
Marks after values point to notes of the source that are not given here.

Tests used:
[1] = test system: c-Myc; design: method as in PMID 16979634; settings: 25 μM auraptene, HT-29 human colorectal cancer cells; cited from earlier work
[2] = test system: N-methyl nitrosourea (MNU) induced mammary carcinogenesis; test: MNU-induced rat mammary carcinogenesis study, dietary auraptene; type: in vivo, female Sprague-Dawley rats; settings: for Incidence (percentage of rats with tumor) / Multiplicity (average number of tumors per rat): means ± SE; for tumor burden: average tumor weight per rat / tumor burden: total tumor weights per rat: at necropsy
Protocol: A total of 128 female Sprague-Dawley rats (28 days of age), purchased from Harlan Teklad (Madison, WI), were used for this experiment. They were housed two per cage, in a temperature and humidity controlled AAALAC facility under 12 h light/dark cycle. All procedures were approved by LSUHSC Institutional Animal Care and Use Committee in accordance with NIH guidelines. They were fed test diets as described below and allowed access to food and water ad libitum.
Rats (28 days of age) were divided up randomly into groups of 24–26 each and were handled daily to get them accustomed to human touch. At 42 days of age the rats were shifted to the test diet. Control group and MNU only group were fed with Teklad (powdered diet) only. MNU/Auraptene 200 ppm group and MNU/Auraptene 500 ppm group received 200 ppm and 500 ppm of auraptene respectively, mixed in the diet for the duration of the study. The doses were selected from the pilot study conducted with a small number of animals. In addition to the 200 ppm dose of auraptene, which indicated the chemopreventive effect of auraptene, a higher dose of auraptene at 500 ppm was added to this study to see any increased chemopreventive effects. Auraptene has been administered in diet at 100 ppm and 500 ppm in other models of cancer. The diet was prepared once a week and stored in cold room. The food was replaced on Monday, Wednesday and Friday or as needed. […] At 50 days of age all the groups except the control group received intraperitoneal MNU injection (50 mg/kg bw in sterile acidified saline). The control group received vehicle only. The rats were palpated for tumors twice a week starting at 2 weeks after MNU administration. Any tumors felt during palpation were recorded by location. The rats were weighed once a week. A diet consumption analysis was done once to see if rats were consuming enough feed across all the groups and there was no significant difference in food consumption between the groups (data not shown). Any rats found to be moribund during the study were sacrificed within 24 h and necropsied. At 18 weeks after MNU administration, rats were euthanized by carbon dioxide asphyxiation and necropsied. The tumor location and weight of the tumor were marked in the necropsy sheet. Mammary fat pads and the tumors were collected in formalin, OCT compound and liquid nitrogen.
The rat body weight data was compared between groups by One-Way ANOVA followed by Tukey test. Groups were compared for the total number of tumors per rat by the nonparametric Kruskal-Wallis test. Time to tumor was estimated and compared among groups using survival curve analysis by the Log-rank test. The Cochran-Armitage test was used to test for trends in binomial response to different dose levels. Analysis was performed using StatXact (Cytel Software Corporation, Cambridge MA) and SPSS (SPSS Inc., Chicago IL). The cell proliferation assays and western blot data were analyzed by One-Way ANOVA followed by Tukey test.

[3] = Stability of auraptene in diet by HPLC; type: physicochemical; settings: animal room conditions, HPLC analysis, data not shown
[4] = Tissue extraction and HPLC-fluorescence analysis of auraptene in rat tissues; type: in vivo, female Sprague-Dawley rats; settings: for average concentration in normal mammary glands: means ± S.E.
Protocol: The concentration of auraptene was measured in mammary glands, livers and tumors of rats. The specimens from the animals were weighed and minced on a glass plate kept on ice. The minced sample was added to 0.05 M Tris buffer, pH 7.4, containing 0.25 M sucrose in 1 ml. To 1 ml of this homogenized sample, 80 μL of 100 μM curcumin was added as internal standard followed by vortexing. The sample was then extracted twice with ethyl acetate: acetone (2:1 v/v). The combined supernatant was then dried under N2 gas, resuspended in 1 mL 70% methanol/H2O and analyzed by HPLC (Shimadzu, SIL-10AF) with UV (254 nm) and fluorescence detection (Shimadzu, RF-535) at excitation and emission wavelengths of 329 nm and 390 nm respectively. The flow rate in HPLC was 1 ml/min with C18*5μ column. The mobile phase started with 80% methanol in water up to 20 minutes and was increased in a linear gradient up to 100% methanol over the next 5 minutes. Under these conditions, auraptene eluted at 14 minutes and curcumin at 6 minutes. The ratio of area under the curve for auraptene at different concentrations to that of curcumin was plotted to make the standard curve. The concentration of auraptene in the specimens was calculated from the standard curve. For the calculation of concentration, 1 gm of the tissue was assumed to occupy a volume of 1 ml.
Figure 6 Concentrations of auraptene in rat tissues from the tumor study. The rat mammary glands, tumors and livers were weighed and homogenized. To the homogenate 80 μL of 100 μM curcumin was added as internal standard and extracted twice with ethyl acetate: acetone mixture (2:1 v/v). The extract was dried and resuspended in 1 mL 70% methanol/H2O and analyzed by HPLC (Shimadzu, SIL-10AF) with UV (254 nm) and fluorescence detection (Shimadzu, RF-535) at excitation and emission wavelengths of 329 nm and 390 nm respectively.

[5] = 200 ppm in diet, 112 days (16 weeks) after MNU
[6] = 200 ppm in diet, 126 days (18 weeks) after MNU
[7] = 200 ppm in diet, 126 days (18 weeks) after MNU, listed as Aur.
[8] = 500 ppm in diet, 16 weeks, vs MNU only group
[9] = 500 ppm in diet, 112 days (16 weeks) after MNU
[10] = 500 ppm in diet, 126 days (18 weeks) after MNU
[11] = 500 ppm in diet, 126 days (18 weeks) after MNU, listed as Aur.

## CC(C)=CCC/C(C)=C/COc1ccc2ccc(=O)oc2c1 [auraptene]
[1]
  expression of c-Myc: suppressed the expression of c-Myc
[2]; 200 ppm in diet
  Median time to tumor: 91 days
  first palpable tumor after MNU injection: 38 days
  tumor burden: average tumor weight per rat: 2.94 ± 0.79 grams
  tumor burden: total tumor weights per rat: 6.52 ± 1.49 grams
[2]; [5]
  Incidence (percentage of rats with tumor): 76.9 ± 8.4%
  Multiplicity (average number of tumors per rat): 1.69 ± 0.27
[2]; [6]
  Incidence (percentage of rats with tumor): 81%
  Multiplicity (average number of tumors per rat): 2.08
[2]; [7]
  Incidence (percentage of rats with tumor): 80.7 ± 7.8%
  Multiplicity (average number of tumors per rat): 2.08 ± 0.33
[2]; 200 ppm in diet, compared to MNU group
  delay of median time to tumor: 11 days
[2]; 500 ppm in diet
  Median time to tumor: 119 days
  first palpable tumor after MNU injection: 49 days
  tumor burden: average tumor weight per rat: 1.79 ± 0.54 grams
  tumor burden: total tumor weights per rat: 6.50 ± 2.10 grams
[2]; [8]
  inhibition of tumor multiplicity: 37%
  suppression of tumor incidence: 46%
[2]; [9]
  Incidence (percentage of rats with tumor): 45.8 ± 10.4^b %
  Multiplicity (average number of tumors per rat): 1.21 ± 0.35^c
[2]; [10]
  Incidence (percentage of rats with tumor): 67%
  Multiplicity (average number of tumors per rat): 2.0
[2]; [11]
  Incidence (percentage of rats with tumor): 66.7 ± 9.8%
  Multiplicity (average number of tumors per rat): 2.00 ± 0.43
[2]; 500 ppm in diet, compared to MNU only group
  delay of median time to tumor: 39 days
[2]; 500 ppm in diet, end of study, MNU only group had 65
  total number of tumors in group: 48 tumors
[2]; 500 ppm in diet, listed as Aur.
  Median time to tumor: 119^d days
[3]
  stability in diet: not degraded
[4]; 200 ppm in diet
  average concentration in normal mammary glands: 1.4 ± 0.5 µM
[4]; 500 ppm in diet, mean, n = 2
  average concentration in livers: 0.87 µM
[4]; 500 ppm in diet
  average concentration in normal mammary glands: 1.8 ± 0.3 µM
